From publication PMC2528936, “Snake Cathelicidin from Bungarus fasciatus Is a Potent Peptide Antibiotics” (PLoS ONE, 2008)
In brackets after ≈: the same amount, converted by molar mass.

Key:
[1] = system: K. pneumoniae standard strain; test: MIC determination, standard strain; type: cell-based; details: Klebsiella pneumoniae
Method: (§1) Antimicrobial activities of cathelicidin-BF and cathelicidin-BF15 ([…]) were tested according to our previous methods [39]–[42]. […] The details were provided in the Materials and Methods S1.
Standard and clinically isolated microorganism strains were used for antimicrobial assays. Bacteria were first grown in LB (Luria-Bertani) broth to an OD600 nm of 0.8. A 10 µl aliquot of the bacteria was then taken and added to 8 ml of fresh LB broth with 0.7% agar and poured over a 90 mm Petri dish containing 25 ml of 1.5% agar in LB broth. After the top agar hardened, a 20 µl aliquot of the test sample filtered on a 0.22 µm Millipore filter was dropped onto the surface of the top agar and completely dried before being incubated overnight at 37 °C. If the sample examined had antimicrobial activity, a clear zone would be formed on the surface of the top agar representing inhibition of bacterial growth. Minimal inhibitory concentration (MIC) was determined in liquid LB medium by incubating the bacteria in LB broth with variable amounts of the sample tested. The MIC at which no visible growth occurred was recorded. In the assays of anti-fungi activity, for strains of Aspergillus terreus, A. niculans, and Chaetomium globosum, the fungal spore concentration was first counted under a microscope. […]

[2] = system: Acinetobacter calcoaceticus; test: microbe, parasite or virus in culture; details: Acinetobacter calcoaceticus
Method: as §1
(§2) Standard and clinically isolated microorganism strains were used for antimicrobial assays. Bacteria were first grown in LB (Luria-Bertani) broth to an OD600 nm of 0.8. A 10 µl aliquot of the bacteria was then taken and added to 8 ml of fresh LB broth with 0.7% agar and poured over a 90 mm Petri dish containing 25 ml of 1.5% agar in LB broth. After the top agar hardened, a 20 µl aliquot of the test sample filtered on a 0.22 µm Millipore filter was dropped onto the surface of the top agar and completely dried before being incubated overnight at 37 °C. If the sample examined had antimicrobial activity, a clear zone would be formed on the surface of the top agar representing inhibition of bacterial growth. Minimal inhibitory concentration (MIC) was determined in liquid LB medium by incubating the bacteria in LB broth with variable amounts of the sample tested. The MIC at which no visible growth occurred was recorded. In the assays of anti-fungi activity, for strains of Aspergillus terreus, A. niculans, and Chaetomium globosum, the fungal spore concentration was first counted under a microscope. The fungi with an initial concentration of 10^5 spores/ml were cultured with variable amounts of the sample tested in yeast extract-peptone-dextrose broth.

[3] = system: Staphylococcus aureus ATCC2592; test: microbe, parasite or virus in culture; details: Staphylococcus aureus, ATCC2592
Method: as §1, §2

Bacillus cereus = test: microbe, parasite or virus in culture; details: Bacillus cereus
Method: as §1, §2

Bacillus subtilis = test: microbe, parasite or virus in culture; details: Bacillus subtilis
Method: as §1, §2

[4] = system: Pseudomonas aeruginosa ATCC27853; test: microbe, parasite or virus in culture; details: Pseudomonas aeruginosa, ATCC27853
Method: as §1, §2

[5] = system: Escherichia coliATCC25922; test: microbe, parasite or virus in culture; details: Escherichia, COLIATCC25922
Method: as §1, §2

[6] = system: Candida albicans ATCC2002; test: microbe, parasite or virus in culture; details: Candida albicans
Method: as §1, §2

Bacillus pumilus = test: microbe, parasite or virus in culture; details: Bacillus pumilus
Method: as §1, §2

[7] = system: Aspergillus terreus GIM3.34; details: saprophytic fungus; 10^5 spores/ml, yeast extract-peptone-dextrose broth; mean of three independent experiments in duplicates; ND = no detectable activity
Method: as §1, §2

Aspergillus niculans = details: saprophytic fungus; 10^5 spores/ml, yeast extract-peptone-dextrose broth; mean of three independent experiments in duplicates; ND = no detectable activity
Method: as §1, §2

Chaetomium globosum = details: saprophytic fungus; 10^5 spores/ml, yeast extract-peptone-dextrose broth; mean of three independent experiments in duplicates; ND = no detectable activity
Method: as §1, §2

CC1(C)S[C@@H]2[C@H](NC(=O)Cc3ccccc3)C(=O)N2[C@H]1C(=O)O [benzylpenicillin]
MIC [1]: 18.7 µg/mL (≈ 55.9 µM) | MIC [2]: 37.5 µg/mL (≈ 112 µM) | MIC [3]: 0.03 µg/mL (≈ 0.0897 µM) | MIC (Bacillus cereus): 150 µg/mL (≈ 449 µM) | MIC (Bacillus subtilis): 0.004 µg/mL (≈ 0.012 µM) | MIC [4]: 18.7 µg/mL (≈ 55.9 µM) | MIC [5]: 37.5 µg/mL (≈ 112 µM) | MIC [6]: 0.03 µg/mL (≈ 0.0897 µM) | MIC (Bacillus pumilus): 0.015 µg/mL (≈ 0.0449 µM) | MIC [7]: no effect | MIC (Aspergillus niculans): no effect | MIC (Chaetomium globosum): no effect

CC1(C)S[C@@H]2[C@H](NC(=O)[C@H](N)c3ccccc3)C(=O)N2[C@H]1C(=O)O [ampicillin]
MIC [1]: 150 µg/mL (≈ 429 µM) | MIC [2]: 75 µg/mL (≈ 215 µM) | MIC [3]: 0.15 µg/mL (≈ 0.429 µM) | MIC (Bacillus cereus): 150 µg/mL (≈ 429 µM) | MIC (Bacillus subtilis): 0.02 µg/mL (≈ 0.0572 µM) | MIC [4]: 150 µg/mL (≈ 429 µM) | MIC [5]: 18.7 µg/mL (≈ 53.5 µM) | MIC [6]: 0.3 µg/mL (≈ 0.859 µM) | MIC (Bacillus pumilus): 0.15 µg/mL (≈ 0.429 µM) | MIC [7]: no effect | MIC (Aspergillus niculans): no effect | MIC (Chaetomium globosum): no effect
